{
  "source": "patent US10328048B2",
  "about": "“Cafestol for treating diabetes” (Aarhus Universitet, priority 2014, dated 2019)",
  "key": {"KKAy mice": {"test_system": "KKAy mice", "assay": "10 week dietary intervention study in diabetic KKAy mice", "assay_type": "in vivo", "details": "10 weeks; for Fasting plasma glucose compared to the control group: in food pellets", "procedure": "(§1) The effects of cafestol were investigated in a 10 week dietary intervention study in a type 2 diabetic animal model. Five weeks old male KKAy mice were randomly assigned to either of three intervention groups (n=12 per group), i.e. 1) Control (no cafestol added), 2) supplementation with 0.382 mg/day of cafestol/kg mice, and 3) supplementation with 1.146 mg/day of cafestol/kg mice. The cafestol was added to food pellets daily. At the beginning of the study (week 0) fasting blood glucose, insulin and lipids (total cholesterol, LDL, HDL and triglycerides) were measured. Every 2nd week fasting blood glucose, body weight and food intake was measured. At the end of the intervention (week 10) fasting blood glucose, insulin, glucagon and lipids (total cholesterol, LDL-cholesterol, HDL-cholesterol) were measured. The pancreas was removed and treated with collagenase and subsequently, the effects on insulin secretory capacity was studied in isolated islets of Langerhans. Furthermore, gene expression levels of key regulatory genes in liver, fat and muscle tissues were measured using RT-PCR."}, "[1]": {"details": "healthy ileostomy volunteers, cited from earlier work"}, "INS-1E cells [2]": {"test_system": "INS-1E cells", "assay": "Chronic (72 hours) insulin secretion from INS-1E cells", "assay_type": "cell-based, rat", "design": "unit not given here", "procedure": "INS-1E cells were seeded onto 24 well plates and incubated for 72 hours in RPMI 1640 supplemented with cafestol. After 72 hours the buffer was changed to a modified Krebs Ringer buffer and the cells were incubated for 60 min at low (3.3 mM) and high (16.7 mM) glucose. Hereafter the medium was removed for later insulin analysis using a sensitive rat insulin kit from Linco."}, "[3]": {"test_system": "Human skeletal muscle cells", "assay": "Acute glucose uptake in human skeletal muscle cell line", "assay_type": "cell-based", "details": "100 nM insulin, 15 minutes", "procedure": "Human skeletal muscle cells were seeded in 24 wells, ([…] cells/well) containing 1 mL growth medium (Promocell, Heidelberg, Germany). Once 70-90% confluence was reached, the growth medium was replaced by 1 mL differentiation medium (Promocell, Heidelberg, Germany). This medium was changed every 2nd day for two weeks until multinucleated syncytia was visible in microscope. Cells were washed twice with PBS. 300 μL of an alternatively modified-Krebs Ringer Buffer (containing 0.1% BSA with 0.1 mM glucose, 1.5 μCi deoxy-d-glucose 2-[1,2-3H(M)] (Perkin Elmer, 2740 Skovlunde, Denmark) and 100 nM insulin was put in each well. Five types of solutions were prepared: one with […] cafestol or rosiglitazone (control), a second with a 10^−6 M cafestol, a third with a 10^−10 M cafestol, a fourth with a 10^−12 M cafestol, and a fifth with a 10^-8 M rosiglitazone. Cells were kept on ice while adding medium. After 15 minutes of incubation at 37° C., 5.0% CO2, cells were washed twice with the modified-Krebs Ringer Buffer supplemented with 0.1% BSA and 50 mM glucose, stopping the incubation and glucose uptake. Hereafter, 0.2 mL 0.1 M NaOH was added to each well for a 30 minute room temperature incubation. 0.1 mL was transferred from each well to a 24 well counting plate (Wallac Oy, Turku, Finland). After adding 0.9 mL Hisafe II scintillator (Perkin Elmer, 2740 Skovlunde, Denmark), plates were stored in the dark for 12 hours before counted using a Trilux Micro Beta Counter (Wallac Oy, Turku, Finland). “Counts per minute” is a direct measure of glucose uptake."}, "[4]": {"test_system": "isolated islets of Langerhans", "assay": "Insulin secretion experiment with isolated islets of Langerhans from KKAy mice after 10 weeks intervention", "assay_type": "in vivo", "procedure": "as §1"}, "INS-1E cells [5]": {"test_system": "INS-1E cells", "assay": "Acute insulin secretion from INS-1E cells", "assay_type": "cell-based, rat", "design": "Insulin secretion, Mean: unit not given here", "details": "for Insulin secretion, Mean: 16.7 mM glucose, 60 min", "procedure": "INS-1E cells were seeded onto 24 well plates before incubation experiments. At the day of the experiment the buffer was changed to a modified Krebs-Ringer-buffer and the cells were preincubated in the same buffer for 60 min. […]"}, "INS-1E cells [6]": {"test_system": "INS-1E cells", "assay": "Chronic (72 hours) insulin secretion from INS-1E cells", "assay_type": "cell-based, rat", "details": "low glucose level (FIG. 2)"}, "[7]": {"details": "oral 1.5 mg/mouse, cited from earlier work"}},
  "note": "Entries after “also recorded” stand apart in the source; their conditions may differ.",
  "data": [
    {"smiles": "C[C@@]12CCc3occc3[C@H]1CC[C@@]13C[C@@H](CC[C@H]12)[C@@](O)(CO)C3", "note": "[Cafestol]", "values": [
      {"measurement": "Fasting plasma glucagon compared to Control", "setting": "KKAy mice; High cafestol group 1.146 mg/day/kg", "result": "significant decreased"},
      {"measurement": "Fasting plasma glucose compared to the control group", "setting": "KKAy mice; high concentration 1.146 mg/day/kg", "result": "significantly decreased; also recorded: decrease fasting plasma glucose significantly"},
      {"measurement": "HOMA-IR compared to control group", "setting": "KKAy mice; high dose of cafestol, p=0.03", "result": "significantly reduced; also recorded: significant decrease"},
      {"measurement": "Fasting plasma glucose compared to the control group", "setting": "KKAy mice; low concentration 0.382 mg/day/kg", "result": "significantly decreased; also recorded: decrease fasting plasma glucose significantly"},
      {"measurement": "HOMA-IR compared to control group", "setting": "KKAy mice; low dose of cafestol", "result": "tendency to be reduced"},
      {"measurement": "Absorbed from the gastrointestinal tract", "setting": "[1]; estimated from recovery in ileostomy effluent", "result": "approximately 70%"},
      {"measurement": "Dose recovered in urine", "setting": "[1]", "result": "approximately 1%"},
      {"measurement": "Insulin secretion, Mean", "setting": "INS-1E cells [2]; 3.3 mM glucose, 72 hours incubation with cafestol 10^−8 M", "result": 0.7482},
      {"measurement": "Insulin secretion, Mean", "setting": "INS-1E cells [2]; 3.3 mM glucose, 72 hours incubation with cafestol 10^−8 M, listed as cafestol", "result": "stimulatory effect"},
      {"measurement": "Insulin secretion, Mean", "setting": "INS-1E cells [2]; 3.3 mM glucose, 72 hours incubation with cafestol 10^−10 M", "result": 0.5853},
      {"measurement": "Insulin secretion, Mean", "setting": "INS-1E cells [2]; 3.3 mM glucose, 72 hours incubation with cafestol 10^−10 M, listed as cafestol", "result": "neutral effect"},
      {"measurement": "Insulin secretion, Mean", "setting": "INS-1E cells [2]; 3.3 mM glucose, 72 hours incubation with cafestol 10^−12 M", "result": 0.4999},
      {"measurement": "Insulin secretion, Mean", "setting": "INS-1E cells [2]; 3.3 mM glucose, 72 hours incubation with cafestol 10^−12 M, listed as cafestol", "result": "significantly decreased"},
      {"measurement": "Insulin secretion, Mean", "setting": "INS-1E cells [2]; 16.7 mM glucose, 72 hours incubation with cafestol 10^−8 M", "result": 1.661},
      {"measurement": "Insulin secretion, Mean", "setting": "INS-1E cells [2]; 16.7 mM glucose, 72 hours incubation with cafestol 10^−8 M, listed as cafestol", "result": "significant increase"},
      {"measurement": "Insulin secretion, Mean", "setting": "INS-1E cells [2]; 16.7 mM glucose, 72 hours incubation with cafestol 10^−10 M", "result": 1.322},
      {"measurement": "Insulin secretion, Mean", "setting": "INS-1E cells [2]; 16.7 mM glucose, 72 hours incubation with cafestol 10^−10 M, listed as cafestol", "result": "significant increase"},
      {"measurement": "Insulin secretion, Mean", "setting": "INS-1E cells [2]; 16.7 mM glucose, 72 hours incubation with cafestol 10^−12 M", "result": 0.9279},
      {"measurement": "Glucose uptake, Counts per minute (± in SEM)", "setting": "[3]; 10^−8 M", "result": "157.2 ± 2.318", "unit": "Counts per minute"},
      {"measurement": "Glucose uptake, Counts per minute (± in SEM)", "setting": "[3]; 10^−8 M, listed as cafestol", "result": "significantly increased"},
      {"measurement": "Glucose uptake, Counts per minute (± in SEM)", "setting": "[3]; 10^−10 M", "result": "151.0 ± 2.104", "unit": "Counts per minute"},
      {"measurement": "Glucose uptake, Counts per minute (± in SEM)", "setting": "[3]; 10^−12 M", "result": "146.3 ± 1.839", "unit": "Counts per minute"},
      {"measurement": "Glucose sensitivity of islets (insulin secretion) compared to Control", "setting": "[4]; after 10 weeks intervention with cafestol", "result": "more glucose sensitive"},
      {"measurement": "Insulin stimulation at low glucose concentration", "setting": "[4]; islets after 10 weeks intervention, low glucose", "result": "not present"},
      {"measurement": "Insulin secretion, Mean", "setting": "INS-1E cells [5]; cafestol 10^−6 M", "result": 0.9013},
      {"measurement": "Insulin secretion, Mean", "setting": "INS-1E cells [5]; cafestol 10^−8 M", "result": 0.8682},
      {"measurement": "Insulin secretion, Mean", "setting": "INS-1E cells [5]; cafestol 10^−10 M", "result": 0.8715},
      {"measurement": "Insulin secretion, Mean", "setting": "INS-1E cells [5]; cafestol 10^−12 M", "result": 0.8261},
      {"measurement": "Insulin secretion (change vs glucose alone)", "setting": "INS-1E cells [5]; high glucose, concentrations ranging from 10^−10 M to 10^−6 M", "result": "significant increase"},
      {"measurement": "Glucagonostatic effect", "setting": "INS-1E cells [6]", "result": "significant glucagonostatic effect"},
      {"measurement": "Parent compound as share of activity present in portal blood", "setting": "[7]; 50 min after administration", "result": 70, "unit": "%"},
      {"measurement": "Parent compound as share of total radioactivity present in portal blood", "setting": "[7]; two minutes after dosing", "result": 50, "unit": "%"}
    ]}
  ]
}
